Measurements reported in patent US11724998B2, “PXR agonists and uses thereof for gut barrier dysfunction treatment and prevention” (Albert Einstein College of Medicine, priority 2017, dated 2023).
Several values for one entry are separate records, joined by “and”; a condition that tells them apart may be missing. Equal entries are not always repeated. Where two headings read alike, the source gives them in different places.

What was measured:
PXR [1] = target: T1, PXR (Homo sapiens, UniProt O75469); experiment: PXR activation, HepG2 reporter assay; type: cell-based; parameters: host or cells: HepG2
T1 sequence (O75469 1-434): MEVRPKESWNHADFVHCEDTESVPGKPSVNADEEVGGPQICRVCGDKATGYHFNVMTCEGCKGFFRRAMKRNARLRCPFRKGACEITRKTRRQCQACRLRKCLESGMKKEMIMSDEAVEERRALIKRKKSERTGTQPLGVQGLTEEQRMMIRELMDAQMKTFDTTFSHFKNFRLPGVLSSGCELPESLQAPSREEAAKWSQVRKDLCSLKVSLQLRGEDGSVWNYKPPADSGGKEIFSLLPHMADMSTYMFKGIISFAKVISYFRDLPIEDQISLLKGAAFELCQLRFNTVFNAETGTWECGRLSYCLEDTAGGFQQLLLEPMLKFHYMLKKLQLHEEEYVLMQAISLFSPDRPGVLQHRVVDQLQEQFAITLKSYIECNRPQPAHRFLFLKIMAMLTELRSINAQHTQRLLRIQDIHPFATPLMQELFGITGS
From the text: (§1) Two molecules that were readily available (Ryan Scientific: FKK999 & BAS451) were purchased and tested in vitro for PXR activation using a HepG2 reporter assay. […] […]. […] In general, reporter cell lines are efficient ways to screen for PXR ligands (72). In the LS180 intestinal cell line, the PXR activation assay involves a transient transfection system using a specific PXR plasmid and reporter plasmid (CVmax % 11.2+2; CVmid % 10.8+0.1.4; Signal Window 6.2+1.1; Z′ factor 0.51+0.005).

RXR = RXR ligand displacement (radiolabeled 9-cis-retinoic acid); type: binding; conditions: displacement of radiolabeled 9-cis-retinoic acid
Procedure: (§2) FIG. 6A-6E. Activation and inhibition studies with different FKK compounds. (A) PXR activation, LS180 cells (upper), and PXR inhibition, LS180 cells, co-incubation with RIF (lower). (B) AhR activation, AZ-AHR cells (upper), and AhR inhibition, AZ-AHR cells, co-incubation with TCDD (lower). (C) GR activation, AZ-GR cells (upper), and VDR activation, IZ-VDRE cells (lower). (D) TR activation, PZ-GR cells (upper), and AR activation, AIZ-AR cells (lower). (E) Displacement of radiolabeled 9-cis-retinoic acid (RA) by FKK compounds.
(§3) All the synthesized compounds and intermediates were tested for their potential to activate PXR and/or AhR via luciferase assays. The PXR activation assays were performed by co-transfecting full-length expressing human PXR plasmid (91) and p3A4 luciferase reporter (92) in LS180 or Caco-2 cells. AhR activation conducted using stably co-transfected HepG2 reporter cells as previously described (93). […] With the exception of FKK6, there was no significant inhibition of TCDD-induced AhR activation. […] Independent verification of AhR activity of randomly selected compounds—FKK 5, 6 and 9—was performed in a separate laboratory (GHP). Nuclear receptor selectivity was assessed for FKK compounds for GR, ADR, TR and AR using cell-based luciferase assays previously described (93-102). […]

AhR target gene (CYP1A1) = type: cell-based, human
From the text: (§4) FIG. 2A-2F. […] Histogram, mean±SD.
FIG. 7A-7B. Effects of FKK compounds on CYP3A4, MDR1 and CYP1A1 gene expression in LS180 cells. (A) mRNA expression. (B) mRNA expression in wt-PXR transfected cells.

[2] = tested on: PXR target genes (CYP3A4, MDR1)
[3] = tested on: AhR target genes (CYP1A1 and CYP1A2); type: cell-based, human
From the text: as §4

[4] = tested on: AhR target genes (CYP1A1 and CYP1A2); experiment: AhR target gene mRNA expression in HepaRG cells (control, AhR-KO)
AhR [5] = target: T2, AhR (Homo sapiens, UniProt P35869); experiment: AhR activation, AZ-AHR (stably co-transfected HepG2) reporter cells; type: cell-based; parameters: endogenous in cells; host or cells: AZ-AHR (HepG2); conditions: to a much lesser extent than FKK 2 and 9; FIG. 6B
T2 sequence (P35869 11-848): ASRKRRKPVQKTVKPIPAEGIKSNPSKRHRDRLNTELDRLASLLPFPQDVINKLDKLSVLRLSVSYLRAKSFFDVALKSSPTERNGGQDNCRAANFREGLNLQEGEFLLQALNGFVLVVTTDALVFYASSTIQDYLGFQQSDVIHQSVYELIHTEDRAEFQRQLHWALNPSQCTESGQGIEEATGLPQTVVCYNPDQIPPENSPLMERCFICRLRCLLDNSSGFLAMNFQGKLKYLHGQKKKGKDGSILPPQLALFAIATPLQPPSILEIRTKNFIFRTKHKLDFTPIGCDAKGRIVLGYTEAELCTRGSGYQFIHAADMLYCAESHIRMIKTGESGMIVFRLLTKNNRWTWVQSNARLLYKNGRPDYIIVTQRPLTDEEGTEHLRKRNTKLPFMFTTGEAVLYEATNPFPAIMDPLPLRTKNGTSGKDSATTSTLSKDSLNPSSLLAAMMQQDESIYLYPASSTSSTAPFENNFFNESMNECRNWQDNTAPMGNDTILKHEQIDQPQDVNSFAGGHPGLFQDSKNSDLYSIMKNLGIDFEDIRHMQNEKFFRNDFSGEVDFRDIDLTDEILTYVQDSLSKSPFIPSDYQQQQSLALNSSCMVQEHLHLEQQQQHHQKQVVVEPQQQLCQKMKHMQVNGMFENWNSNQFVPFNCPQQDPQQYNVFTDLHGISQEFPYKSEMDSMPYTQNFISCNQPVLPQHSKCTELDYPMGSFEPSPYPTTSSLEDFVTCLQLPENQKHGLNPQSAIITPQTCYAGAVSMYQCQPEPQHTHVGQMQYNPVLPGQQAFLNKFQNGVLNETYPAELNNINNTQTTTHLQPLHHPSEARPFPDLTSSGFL
Procedure: as §2
(§5) All the synthesized compounds and intermediates were tested for their potential to activate PXR and/or AhR via luciferase assays. The PXR activation assays were performed by co-transfecting full-length expressing human PXR plasmid (91) and p3A4 luciferase reporter (92) in LS180 or Caco-2 cells. AhR activation conducted using stably co-transfected HepG2 reporter cells as previously described (93). […] With the exception of FKK6, there was no significant inhibition of TCDD-induced AhR activation. […] Independent verification of AhR activity of randomly selected compounds—FKK 5, 6 and 9—was performed in a separate laboratory (GHP). Nuclear receptor selectivity was assessed for FKK compounds for GR, ADR, TR and AR using cell-based luciferase assays previously described (93-102). There was no observed biologically significant (>2-fold) induction of nuclear receptor activity (FIG. 6C). RXR ligand displacement is only significant for FKK1 and FKK8 (FIG. 6D).

468 kinases = experiment: Kinase profiling, scanMAX (KINOMEscan) panel; type: binding; conditions: 10 μM; for Number of Hits: 403 non-mutant kinases
Procedure: The kinase inhibition assays were conducted by DiscoverX on a platform assay by Ambit BioSciences as described previously (112, 113). FKK6 was screened at a single concentration of 10 μM in duplicate. The scanMAXSM assay panel measures 468 kinases (WorldWideWeb.discoverx.com/services/drug-discovery-development-services/kinase-profiling/kinomescan/scanmax). The assays measures a compound's ability to inhibit binding of a canonical ligand substrate, with 0% activity of control corresponding to full inhibition and 100% activity of control to no inhibition. […] Three different activity cut-offs were analyzed—S(35) or % activity of control <35; S(10) or % activity of control <10; and S(1) or % activity of control <1. To illustrate effect or lack of effect, an image of the entire family of kinases tested were grouped by families and S(35). The TREEspot Kinase dendrogram image was generated using TREEspot™ Software Tool and reprinted with permission from KINOMEscan®, a division of DiscoveRx Corporation, © DISCOVERX CORPORATION 2010.

[6] = tested on: PXR occupancy of the target promoters; experiment: Chromatin immunoprecipitation assay (ChIP); type: cell-based; conditions: semi-quantitative PCR
Procedure: These assays were performed as previously published (27).

PXR [7] = target: T1, PXR; experiment: Isothermic titration calorimetry (ITC); type: binding; conditions: FIG. 11
[8] = tested on: PXR target genes (CYP3A4, MDR1); conditions: human, 24 h, 10 μM
AhR [9] = target: T2, AhR; experiment: AhR inhibition, AZ-AHR cells, co-incubation with TCDD; type: cell-based; parameters: endogenous in cells; host or cells: AZ-AHR (HepG2); conditions: read-out: inhibition of maximal induction by TCDD
Procedure: as §2, §3

[10] = tested on: PXR target genes (CYP3A4, MDR1); experiment: PXR target gene mRNA expression in plated human hepatocytes; conditions: 10 μM, 24 h, FIG. 2
PXR [11] = target: T1, PXR; experiment: PXR activation (transactivation) luciferase assay in LS180 cells; type: cell-based; parameters: co-transfecting full-length expressing human PXR plasmid (91) and p3A4 luciferase reporter (92) in LS180 or Caco-2 cells; expressed in transfected cells; host or cells: LS180
Procedure: as §2, §1, §5

AhR [12] = target: T2, AhR; experiment: AhR activation by IPA (assay not described); type: cell-based
From the text: IPA/Indoles can have weak (˜2 fold) but important effects on the activation of other nuclear receptors (e.g., CAR, LXR) (33). […] Some receptors, specifically CAR and LXR, can act to induce liver steatosis (79, 83-86) and hepatocarcinogenesis (CAR) (80, 84, 87-89) and thus, avoiding excessive activation of these nuclear receptors in the context of PXR activation would be important. […] CDK5 (along with CDK2) are important kinases that phosphorylate and inhibit PXR activation (90).

## Cc1[nH]c2ccccc2c1C(c1ccccc1)c1c(C)[nH]c2ccccc12 [BAS451]
PXR [1]
  EC50: > 50 µM

## O=S(=O)(c1ccccc1)n1c(C(O)c2ccncc2)cc2ccccc21 (stereo not shown) [FKK1]
RXR
  RXR ligand displacement: significant
AhR target gene (CYP1A1)
  CYP1A1 mRNA expression: attenuated effects
  CYP1A1 mRNA induction: attenuated effects
[2]
  CYP3A4 mRNA expression: expression is reduced

## OC(c1ccncc1)(c1cc2ccccc2[nH]1)c1cc2ccccc2[nH]1 [FKK2]
[3]; human, hepatocytes
  induction of CYP1A1 and CYP1A2: > 100 fold
[4]
  induction of CYP1A1 and CYP1A2: completely diminished

## CC#CC(O)(c1ccncc1)c1cc2ccccc2n1S(=O)(=O)c1ccccc1 (stereo not shown) [FKK3]
AhR [5]
  AhR activation profile: variable degrees of dose-dependent AhR activation

## CC#CC(O)(c1ccncc1)c1cc2ccccc2n1COCC (stereo not shown) [FKK4]
AhR [5]
  AhR activation profile: variable degrees of dose-dependent AhR activation

## C#CCC(O)(c1ccncc1)c1cc2ccccc2n1S(=O)(=O)c1ccccc1 (stereo not shown) [FKK6]
468 kinases; duplicate
  S(1-35)-scores: 0
468 kinases; 468 kinases
  inhibitory effects on kinases: lack of inhibitory effects of FKK6 on any kinase
468 kinases; S(1), % activity of control <1
  Number of Hits: 0
468 kinases; S(10), % activity of control <10
  Number of Hits: 0
468 kinases; S(35), % activity of control <35
  Number of Hits: 0
[6]
  PXR occupancy of the target promoters: efficiently induces PXR occupancy
PXR [7]
  binding to human PXR: efficient and direct binding
[8]
  CYP3A4 induction: ~10 fold
  MDR1 induction: > 6 fold
AhR [9]
  inhibition at 10 µM: ~25%
[10]
  CYP3A4 induction: ~2.6 fold
  MDR1 induction: ~1.5 fold
PXR [11]
  EC50: 880 nM
PXR [11]; read-out: Emax/Emax[rifampicin, positive control]
  Emax: 117%

## O=S(=O)(c1ccccc1)n1c(C(O)(Cc2cc3ccccc3[nH]2)c2ccncc2)cc2ccccc21 (stereo not shown) [FKK7]
AhR [5]
  AhR activation profile: variable degrees of dose-dependent AhR activation

## CCOCn1c(C(O)(Cc2cc3ccccc3[nH]2)c2ccncc2)cc2ccccc21 (stereo not shown) [FKK9]
[3]; human, hepatocytes
  induction of CYP1A1 and CYP1A2: > 100 fold
[4]
  induction of CYP1A1 and CYP1A2: completely diminished

## OC(Cc1cc2ccccc2[nH]1)(c1ccncc1)c1cc2ccccc2[nH]1 (stereo not shown) [FKK10]
AhR [5]
  AhR activation profile: variable degrees of dose-dependent AhR activation

## Cc1[nH]c2ccccc2c1C(c1c(C)[nH]c2ccccc12)c1c(C)[nH]c2ccccc12 [FKK999, reference compound]
AhR target gene (CYP1A1)
  CYP1A1 mRNA expression: attenuated effects
  CYP1A1 mRNA induction: attenuated effects
[2]
  CYP3A4 mRNA expression: expression is reduced
[2]; human
  CYP3A4 mRNA induction: > 2 fold
PXR [1]; HepG2 reporter assay, read-out: EC50, PXR activation
  EC50: 5 µM
AhR [5]
  AhR activation profile: variable degrees of dose-dependent AhR activation

## O=C(O)CCc1c[nH]c2ccccc12 [IPA, indole-3-propionic acid, reference compound]
AhR [12]
  AhR activation: does not activate AhR

## Clc1cc2c(cc1Cl)Oc1cc(Cl)c(Cl)cc1O2 [TCDD]
AhR target gene (CYP1A1); PXR transfected LS180 cells, FIG. 7B
  CYP1A1 mRNA induction: 1299.1 fold
AhR target gene (CYP1A1); un-transfected LS180 cells, FIG. 7A
  CYP1A1 mRNA expression: 2347 fold and < 3000 fold
[3]; primary human hepatocytes, FKK2 and FKK9 in 1 of 4 hepatocytes
  induction of CYP1A1 and CYP1A2: > 5000 fold
